Results taken from US20090305894A1, “use of sulfonanilides as herbicide” (priority 2005, published 2009).

How the values were obtained:
Format in all cases: in vivo
[1] = tested on: paddy rice seedlings (cultivar: Nihonbare); test: Herbicide damage on transplanted paddy rice (Test Example 2, Table 9); details: 60 g ai/ha, applied to water surface 5 days after transplantation, rated after 3 weeks; 100% = complete withering, 0% = no damage
Protocol: (§1) The formulations of active compounds were obtained as emulsions by mixing 1 part by weight of the active compound with the carrier and emulsifier in the described amounts. The formulations were diluted with water so as to adjust a prescribed dosage.
In a greenhouse each three paddy rice seedlings (cultivar: Nihonbare) were transplanted (transplantation depth 2 cm) in each pot filled with 500 cm^2 of paddy field soil and covered with water in about 2 to 3 cm depth. After 5 days from the transplantation, prescribed diluted solutions of the formulations of the respective active compounds obtained in the same manner as in Test Example 1 were applied to the water surface of each pot. After the treatment, the water depth of 3 cm was kept. The herbicide damage was investigated after 3 weeks of the treatment. The herbicide damage was rated as 100% in the case of complete withering and 0% in the case of no herbicide damage. When the herbicide damage was 20% or lower, the safety as a paddy rice herbicide was evaluated to be excellent. As the representative examples, the test results of the compound Nos. 3, 4, 5, 6, 7, 70, 115, 127 and 128, and comparative compound C-2 are shown in Table 9.

[2] = tested on: Scirpus juncoides Roxburgh (resistant to sulfonylurea type herbicide); test: Herbicidal efficacy test to weeds resistant to sulfonylurea type herbicide (Test Example 1, applied on water surface, Table 8); details: 60 g ai/ha, applied on water surface at beginning of sprouting, rated after 3 weeks; 100% = complete withering, 0% = no effect
Protocol: (§2) Preparation of formulation of active compound
(§3) Carrier: DMF 5 parts by weight
(§4) Emulsifier: benzyloxypolyglycol ether 1 part by weight
as §1
(§5) In a greenhouse respective seeds of Scirpus juncoides Roxburgh (from Hokkaido, Japan) and Lindernia procumbens Philcox (from Saitama, Japan), which are confirmed to have resistance to a sulfonylurea type herbicide, were inoculated in pots filled with 500 cm^2 of paddy field soil and water was poured to the pot in about 2 to 3 cm depth. At the beginning of sprouting of the weeds, prescribed diluted solutions of the formulations of the respective active compounds obtained by the above-mentioned manner were applied on the water surface. After the treatment water depth of 3 cm was kept. The herbicidal effect was investigated after 3 weeks of the treatment. The herbicidal effect was rated as 100% in the case of complete withering and 0% in the case of no herbicidal effect. When the herbicidal effect was 80% or higher, the practical effectiveness as herbicides is recognized. As the representative examples, the test results of the compound Nos. 1, 3, 4, 5, 6, 7, 13, 70, 127, 128 and 130 are shown in Table 8.

[3] = tested on: Lindernia procumbens Philcox (resistant to sulfonylurea type herbicide); test: as above; details: 60 g ai/ha, applied on water surface at beginning of sprouting, rated after 3 weeks; 100% = complete withering, 0% = no effect
Protocol: as §2, §3, §4, §1, §5

Glycine max = test: Herbicide damage to crops in dry field, spraying treatment on soil before sprouting (Test Example 4, Table 12); details: 80 g ai/ha, rated after 3 weeks
Protocol: as §1
(§6) In a greenhouse seeds of rice (cultivar: Balilla) and weeds (Brachiaria plantaginea, Cyperus esculntus, Cyperus iria L., Echinochloa colonum, Leptochloa chinensis, Ipomoea purpurea, and Sesbania exaltata) were inoculated on the surface layers of pots filled with 100 cm^2 of paddy field soil and covered with soil. Water was poured to produce wet state (water level 0 cm). The prescribed diluted solutions of the formulations of the respective active compounds obtained in the same manner as in Test Example 1 were sprayed on the soil of some pots on completion of the seeding and the solutions of the agents were sprayed over the plants from the above in the rest of the pots after the respective sample plants were grown in first- to third-1 eaf stage in the greenhouse. After one day from the treatment with the compound, water was poured in 3 cm depth. The herbicidal effects and herbicide damage on rice of the respective compounds were investigated after 3 weeks from the treatment. The herbicidal effect and herbicide damage on the rice were rated as 100% in the case of complete withering and 0% in the case of no herbicidal effect or no harm. When herbicidal effect was 80% or higher, it was determined to be practically applicable as herbicides. When the herbicide damage was 20% or lower, the safety of the herbicide was evaluated to be excellent.
(§7) In a greenhouse one seed each of crops in dry field (Triticum aestivum and Glycine max) and weeds (Echinochloa crus-gali and Setaria vividis) were inoculated in the surface layer in one pot filled with 16 cm^2 of dry field soil and covered with soil. The prescribed diluted solutions of the formulations of the respective active compounds obtained in the same manner as in Test Example 1 were sprayed to the soil upon the inoculation. The herbicidal effect and herbicide damage on crops of the respective compounds were investigated after 3 weeks from the treatment. Evaluations of the herbicidal effect and herbicide damage were carried out in the same manner as in Test Example 3. As the representative example, the test results of compound No. 1 and 24, and the comparative compound C-1 are shown in Table 12.

Triticum aestivum = test: as above; details: 80 g ai/ha, rated after 3 weeks
Protocol: as §1, §6, §7

Echinochloa crus-gali = test: Herbicidal effect on weeds in dry field, spraying treatment on soil before sprouting (Test Example 4, Table 12); details: 80 g ai/ha, spraying to soil before sprouting, rated after 3 weeks
Protocol: as §1, §6, §7

Setaria vividis = test: as above; details: 80 g ai/ha, spraying to soil before sprouting, rated after 3 weeks
Protocol: as §1, §6, §7

Echinochloa colonum [4] = test: Irrigated directly seeded paddy rice, herbicidal effect, spraying to soil before sprouting (Test Example 3, Table 10); details: 20 g ai/ha, rated after 3 weeks
Protocol: as §1, §6

Cyperus iria L. [5] = test: as above; details: 20 g ai/ha, rated after 3 weeks
Protocol: as §1, §6

Cyperus esculntus [6] = test: as above; details: 20 g ai/ha, rated after 3 weeks
Protocol: as §1, §6

Brachiaria plantaginea [7] = test: as above; details: 20 g ai/ha, rated after 3 weeks
Protocol: as §1, §6

Ipomoea purpurea [8] = test: as above; details: 20 g ai/ha, rated after 3 weeks
Protocol: as §1, §6

Leptochloa chinensis = test: as above; details: 20 g ai/ha, rated after 3 weeks
Protocol: as §1, §6

Sesbania exaltata [9] = test: as above; details: 20 g ai/ha, rated after 3 weeks
Protocol: as §1, §6

rice (cultivar: Balilla) [10] = test: Irrigated directly seeded paddy rice, herbicide damage, spraying to stems and leaves after sprouting (Test Example 3, Table 11); details: 20 g ai/ha, rated after 3 weeks
Protocol: as §1, §6

Echinochloa colonum [11] = test: Irrigated directly seeded paddy rice, herbicidal effect, spraying to stems and leaves after sprouting (Test Example 3, Table 11); details: 20 g ai/ha, rated after 3 weeks
Protocol: as §1, §6

Cyperus iria L. [12] = test: as above; details: 20 g ai/ha, rated after 3 weeks
Protocol: as §1, §6

Cyperus esculntus [13] = test: as above; details: 20 g ai/ha, rated after 3 weeks
Protocol: as §1, §6

Brachiaria plantaginea [14] = test: as above; details: 20 g ai/ha, rated after 3 weeks
Protocol: as §1, §6

Ipomoea purpurea [15] = test: as above; details: 20 g ai/ha, rated after 3 weeks
Protocol: as §1, §6

Sesbania exaltata [16] = test: as above; details: 20 g ai/ha, rated after 3 weeks
Protocol: as §1, §6

rice (cultivar: Balilla) [17] = test: Irrigated directly seeded paddy rice, herbicide damage, spraying to soil before sprouting (Test Example 3, Table 10); details: 20 g ai/ha, rated after 3 weeks
Protocol: as §1, §6

Structure (SMILES)	Herbicide damage on transplanted paddy rice [1] [%]	Herbicidal effect to sulfonylurea resistant weeds: Scirpus juncoides Roxburgh (from Hokkaido) [2] [%]	Herbicidal effect to sulfonylurea resistant weeds: Lindernia procumbens Philcox (from Saitama pref.) [3] [%]	also measured
COc1nc(OC)nc(C(=O)c2cccc(OC)c2N(C)S(=O)(=O)C(F)F)n1 [compound 115]	0			
COc1cc(OC)nc(C(O)c2ccc(Cl)c(OC)c2NS(=O)(=O)C(F)F)n1 (stereo not drawn) [compound 128]	0	90	100	
COc1cc(OC)nc(C(O)c2ccc(F)c(F)c2NS(=O)(=O)C(F)F)n1 (stereo not drawn) [Compound No. 3, 2,3-Difluoro-6-[1-(4,6-dimethoxypyrimidin-2-yl)-1-hydroxymethyl]-N-difluoromethanesulfonanilide]	10	100	100	
COCN(c1c(F)cccc1C(=O)c1nc(OC)nc(OC)n1)S(=O)(=O)C(F)F [compound 24]				Herbicide damage Glycine max (Glycine max): 0%; Herbicide damage Triticum aestivum (Triticum aestivum): 0%; Herbicidal effect Echinochloa crus-gali (Echinochloa crus-gali): 80%; Herbicidal effect Setaria vividis (Setaria vividis): 90%
COc1cc(OC)nc(C(O)c2ccc(F)c(C)c2NS(=O)(=O)C(F)F)n1 (stereo not drawn) [compound 70]	10	100	90	
COc1cc(OC)nc(C(O)c2ccc(F)c(OC)c2NS(=O)(=O)C(F)F)n1 (stereo not drawn) [compound 127]	0	100	90	
COc1cc(OC)nc(C(O)c2c(F)ccc(F)c2NS(=O)(=O)C(F)F)n1 (stereo not drawn) [compound 7]	10	100	100	
COc1nc(OC)nc(C(=O)c2cccc(Cl)c2N(C)S(=O)(=O)C(F)F)n1 [compound 2]				Herbicidal effect Echinochloa colonum (Echinochloa colonum [4]): 80%; Herbicidal effect Cyperusiria L. (Cyperus iria L. [5]): 100%; Herbicidal effect Cyperus esculntus (Cyperus esculntus [6]): 90%; Herbicidal effect Brachiaria plantaginea (Brachiaria plantaginea [7]): 80%; Herbicidal effect Ipomoea purpurea (Ipomoea purpurea [8]): 80%; Herbicidal effect Leptochloa chinensis (Leptochloa chinensis): 90%; Herbicidal effect Sesbania exaltata (Sesbania exaltata [9]): 80%; Herbicide damage on Rice (rice (cultivar: Balilla) [10]): 10%; Herbicidal effect Echinochloa colonum (Echinochloa colonum [11]): 100%; Herbicidal effect Cyperusiria L. (Cyperus iria L. [12]): 100%; Herbicidal effect Cyperus esculntus (Cyperus esculntus [13]): 100%; Herbicidal effect Brachiaria plantaginea (Brachiaria plantaginea [14]): 100%; Herbicidal effect Ipomoea purpurea (Ipomoea purpurea [15]): 100%; Herbicidal effect Sesbania exaltata (Sesbania exaltata [16]): 100%; Herbicide damage on Rice (rice (cultivar: Balilla) [17]): 30%
CCOc1cccc(C(O)c2nc(OC)cc(OC)n2)c1NS(=O)(=O)C(F)F (stereo not drawn) [compound 130]		100	100	
COc1cc(OC)nc(C(O)c2ccc(Cl)c(F)c2NS(=O)(=O)C(F)F)n1 (stereo not drawn) [compound 4, 2-fluoro-3-chloro-6-[1-(4,6-dimethoxypyrimidin-2-yl)-1-hydroxymethyl]-N-difluoromethanesulfonanilide]	10	100	100	
COCc1cccc(C(O)c2nc(OC)cc(OC)n2)c1NS(=O)(=O)C(F)F (stereo not drawn) [C-2, reference compound]	30			
CCOc1ccccc1OS(=O)(=O)NC(=O)Nc1nc(OC)cc(OC)n1 [C-3, Ethoxysulfuron, reference compound]		10	10	
COC(=O)c1ccccc1CS(=O)(=O)NC(=O)Nc1nc(OC)cc(OC)n1 [C-4, Bensulfuron-methyl, reference compound]		10	10	
COc1cc(OC)nc(C(O)c2ccc(F)cc2NS(=O)(=O)C(F)F)n1 (stereo not drawn) [compound 5]	0	100	100	
COc1cc(OC)nc(C(O)c2c(F)cccc2NS(=O)(=O)C(F)F)n1 (stereo not drawn) [compound 6]	10	100	100	
